The source of these data is patent US20220125051A1, “PRE-HARVEST DESICCATION METHOD” (SYNGENTA CROP PROTECTION AG, priority 2019, published 2022).

What all share (test): Post-emergence efficacy, Method A
Type in all cases: in vivo

The subject of assay [1] is Chenopodium album (CHEAL). The note with it: Chenopodium album, post-emergence, 312 h, evaluated after 13 days. Put shortly:
(§1)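 Plants raised 14 days from seed in standard soil in a glasshouse (24/16 °C day/night, 14 h light, 65% humidity) were sprayed with compound dissolved in acetone plus IF50 solvent/emulsifier (50 g/l solution), diluted with 0.25% or 1% Empicol ESC70 + 1% ammonium sulphate. Damage was scored visually after 13 days (0 = none, 100 = total).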

Assay [2] concerns Euphorbia heterophylla (EPHHL). The note with it: Euphorbia heterophylla, post-emergence, 312 h, evaluated after 13 days. In outline:
as §1

The subject of assay [3] is Setaria faberi (SETFA). The note with it: Setaria faberi, post-emergence, 312 h, evaluated after 13 days. In outline:
as §1

Assay [4] concerns Ipomoea hederacea (IPOHE). The note with it: Ipomoea hederacea, post-emergence, 312 h, evaluated after 13 days. Put shortly:
as §1

Assay [5] concerns Amaranthus palmeri (AMAPA). Particulars: Amaranthus palmeri, post-emergence, 312 h, evaluated after 13 days. Put shortly: as §1
In assay [6] the test system is Digitaria sanguinalis (DIGSA). Particulars: Digitaria sanguinalis, post-emergence, 312 h, evaluated after 13 days. In outline:
as §1

In assay [7] the test system is Lolium perenne (LOLPE). The note with it: Lolium perenne, post-emergence, 312 h, evaluated after 13 days. In outline:
as §1

The test system of assay [8] is Echinochloa crus-galli (ECHCG). The note with it: Echinochloa crus-galli, post-emergence, 312 h, evaluated after 13 days. In outline:
as §1

In assay [9] the test system is Eleusine indica (ELEIN). The note with it: Eleusine indica, post-emergence, 312 h, evaluated after 13 days. In outline: as §1
Setting [10] is: Application rate 500 g/Ha, 100=total damage to plant, 0=no damage to plant, read-out: Control of weed species after post-emergence application, CHEAL.
Setting [11] is: Application rate 500 g/Ha, 100=total damage to plant, 0=no damage to plant, read-out: Control of weed species after post-emergence application, EPHHL.
Where [12] appears, read: Application rate 500 g/Ha, 100=total damage to plant, 0=no damage to plant, read-out: Control of weed species after post-emergence application, SETFA.
Setting [13] is: Application rate 500 g/Ha, 100=total damage to plant, 0=no damage to plant, read-out: Control of weed species after post-emergence application, IPOHE.
The mark [14] stands for this setting: Application rate 500 g/Ha, 100=total damage to plant, 0=no damage to plant, read-out: Control of weed species after post-emergence application, AMAPA.
Where [15] appears, read: Application rate 500 g/Ha, 100=total damage to plant, 0=no damage to plant, read-out: Control of weed species after post-emergence application, DIGSA.
Where [16] appears, read: Application rate 500 g/Ha, 100=total damage to plant, 0=no damage to plant, read-out: Control of weed species after post-emergence application, LOLPE.
Setting [17] is: Application rate 500 g/Ha, 100=total damage to plant, 0=no damage to plant, read-out: Control of weed species after post-emergence application, ECHCG.
Setting [18] is: Application rate 500 g/Ha, 100=total damage to plant, 0=no damage to plant, read-out: Control of weed species after post-emergence application, ELEIN.
Where [19] appears, read: Application Rate 500 g/Ha, Method A, read-out: Control of weed species after post-emergence application, CHEAL (100=total damage to plant; 0=no damage to plant).
Setting [20] is: Application Rate 500 g/Ha, Method A, read-out: Control of weed species after post-emergence application, EPHHL (100=total damage to plant; 0=no damage to plant).
Where [21] appears, read: Application Rate 500 g/Ha, Method A, read-out: Control of weed species after post-emergence application, SETFA (100=total damage to plant; 0=no damage to plant).
[22] abbreviates: Application Rate 500 g/Ha, Method A, read-out: Control of weed species after post-emergence application, IPOHE (100=total damage to plant; 0=no damage to plant).
Setting [23] is: Application Rate 500 g/Ha, Method A, read-out: Control of weed species after post-emergence application, AMAPA (100=total damage to plant; 0=no damage to plant).
[24] abbreviates: Application Rate 500 g/Ha, Method A, read-out: Control of weed species after post-emergence application, DIGSA (100=total damage to plant; 0=no damage to plant).
[25] abbreviates: Application Rate 500 g/Ha, Method A, read-out: Control of weed species after post-emergence application, LOLPE (100=total damage to plant; 0=no damage to plant).
[26] abbreviates: Application Rate 500 g/Ha, Method A, read-out: Control of weed species after post-emergence application, ECHCG (100=total damage to plant; 0=no damage to plant).
Where [27] appears, read: Application Rate 500 g/Ha, Method A, read-out: Control of weed species after post-emergence application, ELEIN (100=total damage to plant; 0=no damage to plant).

Where two headings read alike, the source gives them in different places.

Turning to `Cc1nc(-c2cc[n+](CCC(=O)[O-])nc2)ncc1Cl` [Compound A100], the pest or weed control at 500 g/ha in assay [1] (setting [10]) worked out at 60%; in assay [2] (setting [11]), 90%; in [3] (setting [12]), 20%; in [4] (setting [13]), 20%; in assay [5] (setting [14]), 60%; in [6] (setting [15]) it was 40%. Further, the pest or weed control at 500 g/ha in [7] (setting [16]) amounted to 10%; in assay [8] (setting [17]) it was 70%; in assay [9] (setting [18]) it was 60%.
As for `Cc1cc(=O)[nH]c(-c2cc[n+](CCS(=O)(=O)[O-])nc2)n1` [Compound A95], the pest or weed control at 500 g/ha was determined as 40% in [1] (setting [10]); 40% in [2] (setting [11]); 50% in assay [3] (setting [12]); 30% in [4] (setting [13]); 30% in [5] (setting [14]); 40% in assay [6] (setting [15]). Moreover, the figures for the pest or weed control at 500 g/ha in assay [7] (setting [16]), in assay [8] (setting [17]) and in assay [9] (setting [18]) were 20%, 50% and 30%, respectively.
`COc1ccnc(-c2cc[n+](CCC(=O)[O-])nc2)n1` [Compound A101]: the pest or weed control at 500 g/ha in [1] (setting [10]) is 70%; in [2] (setting [11]), 80%; in [3] (setting [12]) it was 80%; in [4] (setting [13]) it was 10%; in assay [5] (setting [14]) it was 80%; in [6] (setting [15]) it was 60%. The pest or weed control at 500 g/ha in assay [7] (setting [16]) came to 70%; in [8] (setting [17]) it was 60%; in [9] (setting [18]) it was 40%.
Take `Cc1cnc(-c2cc[n+](CCS(=O)(=O)[O-])nc2)c(C)c1` [Compound A152]: the pest or weed control at 500 g/ha in [1] (setting [10]) amounted to 10%; in assay [2] (setting [11]) it was 20%; in assay [3] (setting [12]) it was 20%; in [4] (setting [13]), 0%; in assay [5] (setting [14]), 20%; in assay [6] (setting [15]), 30%. In addition, the pest or weed control at 500 g/ha in assay [7] (setting [16]) came out at 10%; in assay [8] (setting [17]) it was 20%; in assay [9] (setting [18]), 20%.
On to `N#Cc1ccnc(-c2cc[n+](CCCS(=O)(=O)[O-])nc2)n1` [Compound A147], for which the pest or weed control at 500 g/ha in [1] (setting [10]) turned out to be 50%; in [2] (setting [11]), 70%; in [3] (setting [12]), 40%; in assay [4] (setting [13]) it was 60%; in assay [5] (setting [14]), 40%; in assay [6] (setting [15]), 20%. In addition, the pest or weed control at 500 g/ha stood at 40% in [7] (setting [16]), 30% in assay [8] (setting [17]) and 20% in assay [9] (setting [18]).
With `O=S(=O)([O-])CCC[n+]1ccc(-c2cnc(F)cn2)cn1` [Compound A98], the pest or weed control at 500 g/ha was found to be 20% in [1] (setting [10]); 40% in assay [2] (setting [11]); 20% in assay [3] (setting [12]); 30% in assay [4] (setting [13]); 40% in assay [5] (setting [14]); 10% in [6] (setting [15]). In addition, the pest or weed control at 500 g/ha worked out at 0% in [7] (setting [16]), 20% in assay [8] (setting [17]) and 20% in [9] (setting [18]).
Turning to `Cc1cnc(-c2cc[n+](CCC(=O)O)nc2)c(Cl)c1` [Compound A137], the pest or weed control at 500 g/ha in assay [1] (setting [10]) was 20%; in [2] (setting [11]), 20%; in assay [3] (setting [12]), 40%; in [4] (setting [13]), 10%; in assay [5] (setting [14]) it was 60%; in assay [6] (setting [15]), 40%. For the same compound, the pest or weed control at 500 g/ha in assay [7] (setting [16]) was 20%; in assay [8] (setting [17]) it was 30%; in assay [9] (setting [18]), 40%.
With `Cc1ccc(-c2cc[n+](CCS(=O)(=O)[O-])nc2)nc1` [Compound A155], the pest or weed control at 500 g/ha in assay [1] (setting [19]) worked out at 10%; in assay [2] (setting [20]), 30%; in assay [3] (setting [21]) it was 40%; in [4] (setting [22]) it was 20%; in assay [5] (setting [23]), 20%; in assay [6] (setting [24]) it was 50%. The pest or weed control at 500 g/ha amounted to 50% in assay [7] (setting [25]), 40% in [8] (setting [26]) and 30% in assay [9] (setting [27]).
Turning to `O=S(=O)([O-])CCC[n+]1ccc(-c2ccc(-c3ccc(Cl)nn3)nn2)cn1` [Compound A168], the pest or weed control at 500 g/ha came out at 40% in assay [1] (setting [19]); 30% in assay [2] (setting [20]); 10% in assay [3] (setting [21]); 20% in assay [4] (setting [22]); 0% in assay [5] (setting [23]); 10% in assay [6] (setting [24]). The pest or weed control at 500 g/ha in [7] (setting [25]) is 10%; in assay [8] (setting [26]), 20%; in assay [9] (setting [27]), 20%.
For `Cc1cncc(-c2cc[n+](CCS(=O)(=O)[O-])nc2)n1` [Compound A83], the pest or weed control at 500 g/ha in [1] (setting [10]) came to 80%; in [2] (setting [11]) it was 90%; in assay [3] (setting [12]), 90%; in [4] (setting [13]), 40%; in assay [5] (setting [14]), 90%; in assay [6] (setting [15]) it was 100%. In addition, the pest or weed control at 500 g/ha was determined as 70% in assay [7] (setting [16]), 50% in assay [8] (setting [17]) and 100% in [9] (setting [18]).
Take `O=C([O-])CC[n+]1ccc(-c2ncccc2F)cn1` [Compound A67]: the pest or weed control at 500 g/ha in assay [1] (setting [10]) worked out at 50%; in assay [2] (setting [11]), 80%; in assay [3] (setting [12]), 70%; in assay [4] (setting [13]), 20%; in assay [5] (setting [14]) it was 60%; in [6] (setting [15]), 60%. The figures for the pest or weed control at 500 g/ha in [7] (setting [16]), in assay [8] (setting [17]) and in [9] (setting [18]) were 40%, 80% and 70%, respectively.
For `O=C(O)CC[n+]1ccc(-c2ncccc2Cl)cn1` [Compound A149], the pest or weed control at 500 g/ha in assay [1] (setting [10]) was determined as 40%; in [2] (setting [11]), 30%; in assay [3] (setting [12]) it was 40%; in assay [4] (setting [13]), 10%; in assay [5] (setting [14]) it was 30%; in assay [6] (setting [15]) it was 50%. Also, the pest or weed control at 500 g/ha in assay [7] (setting [16]) worked out at 40%; in [8] (setting [17]), 50%; in [9] (setting [18]), 60%.
